Experimental data reported in PubChem BioAssay AID1963834 (Molecular Pharmacology Branch, DTP, NCI, 2024).

Tested on: 873145-292-R-J1-PDC complex spheroid viability
Assay: Anticancer human tumor 873145-292-R-J1-PDC patient-derived renal clear cell carcinoma cell line growth inhibition [POLQ]
Conditions: for IC50: curve of first compound; for viability, T/C: stronger effect = lower value
In short: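 PDC + HUVEC + MSC complex spheroids; POLQ inhibitors ± partner drugs; top conc. at/near clinical Cmax, else 10 microM (SN-38 1 microM), half-log dilutions; 37 degrees C, 5% CO2.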

[1] = second compound 0.0316 µM, first compound 0.0316 µM
[2] = second compound 0.0316 µM, first compound 0.1 µM
[3] = second compound 0.0316 µM, first compound 0.316 µM
[4] = second compound 0.0316 µM, first compound 1 µM
[5] = second compound 0.0316 µM, first compound 3.16 µM
[6] = second compound 0.0316 µM, first compound 10 µM
[7] = second compound 0.1 µM, first compound 0.0316 µM
[8] = second compound 0.1 µM, first compound 0.1 µM
[9] = second compound 0.1 µM, first compound 0.316 µM
[10] = second compound 0.1 µM, first compound 1 µM
[11] = second compound 0.1 µM, first compound 3.16 µM
[12] = second compound 0.1 µM, first compound 10 µM
[13] = second compound 0.316 µM, first compound 0.0316 µM
[14] = second compound 0.316 µM, first compound 0.1 µM
[15] = second compound 0.316 µM, first compound 0.316 µM
[16] = second compound 0.316 µM, first compound 1 µM
[17] = second compound 0.316 µM, first compound 3.16 µM
[18] = second compound 0.316 µM, first compound 10 µM
[19] = second compound 1 µM, first compound 0.0316 µM
[20] = second compound 1 µM, first compound 0.1 µM
[21] = second compound 1 µM, first compound 0.316 µM
[22] = second compound 1 µM, first compound 1 µM
[23] = second compound 1 µM, first compound 3.16 µM
[24] = second compound 1 µM, first compound 10 µM
[25] = second compound 3.16 µM, first compound 0.0316 µM
[26] = second compound 3.16 µM, first compound 0.1 µM
[27] = second compound 3.16 µM, first compound 0.316 µM
[28] = second compound 3.16 µM, first compound 1 µM
[29] = second compound 3.16 µM, first compound 3.16 µM
[30] = second compound 3.16 µM, first compound 10 µM
[31] = second compound 10 µM, first compound 0.0316 µM
[32] = second compound 10 µM, first compound 0.1 µM
[33] = second compound 10 µM, first compound 0.316 µM
[34] = second compound 10 µM, first compound 1 µM
[35] = second compound 10 µM, first compound 3.16 µM
[36] = second compound 10 µM, first compound 10 µM
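Note: spheroids exposed to compounds for 7 days before viability readout.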
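Throughout, for viability, T/C: luminescence signal used as surrogate for viable cell content; 100% = DMSO vehicle control viability.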

SMILES: CC(C)n1c(=O)n(C)c2cnc3cc(F)c(-c4ccc(OCCCN5CCCCC5)nc4)cc3c21 + Cc1cccc(N(C)C(=O)C2C(O)CCN2c2nc(C)cc(C(F)(F)F)c2C#N)c1
- IC50 (second compound 0.0316 µM): > 10 µM
- IC50 (second compound 0.1 µM): > 10 µM
- IC50 (second compound 0.316 µM): > 10 µM
- IC50 (second compound 1 µM): > 10 µM
- IC50 (second compound 3.16 µM): > 10 µM
- IC50 (second compound 10 µM): > 10 µM
- viability, T/C [1]: 84.6%
- viability, T/C [2]: 102%
- viability, T/C [3]: 96.9%
- viability, T/C [4]: 100%
- viability, T/C [5]: 89.2%
- viability, T/C [6]: 78.1%
- viability, T/C [7]: 94.7%
- viability, T/C [8]: 103%
- viability, T/C [9]: 100%
- viability, T/C [10]: 90.4%
- viability, T/C [11]: 85.9%
- viability, T/C [12]: 76.4%
- viability, T/C [13]: 105%
- viability, T/C [14]: 99%
- viability, T/C [15]: 79.7%
- viability, T/C [16]: 99.8%
- viability, T/C [17]: 98.8%
- viability, T/C [18]: 73.3%
- viability, T/C [19]: 106%
- viability, T/C [20]: 106%
- viability, T/C [21]: 102%
- viability, T/C [22]: 91.8%
- viability, T/C [23]: 89.2%
- viability, T/C [24]: 72.4%
- viability, T/C [25]: 91%
- viability, T/C [26]: 91.8%
- viability, T/C [27]: 114%
- viability, T/C [28]: 101%
- viability, T/C [29]: 107%
- viability, T/C [30]: 69.4%
- viability, T/C [31]: 88.8%
- viability, T/C [32]: 98.6%
- viability, T/C [33]: 104%
- viability, T/C [34]: 90.2%
- viability, T/C [35]: 87.8%
- viability, T/C [36]: 66.4%

SMILES: CC1COCCN1c1cc(C2(S(C)(=N)=O)CC2)nc(-c2ccnc3[nH]ccc23)n1 (centres undefined) + Cc1cccc(N(C)C(=O)C2C(O)CCN2c2nc(C)cc(C(F)(F)F)c2C#N)c1
- IC50 (second compound 0.0316 µM): > 10 µM
- IC50 (second compound 0.1 µM): > 10 µM
- IC50 (second compound 0.316 µM): > 10 µM
- IC50 (second compound 1 µM): > 10 µM
- IC50 (second compound 3.16 µM): > 10 µM
- IC50 (second compound 10 µM): > 10 µM
- viability, T/C [1]: 98.1%
- viability, T/C [2]: 102%
- viability, T/C [3]: 101%
- viability, T/C [4]: 95.4%
- viability, T/C [5]: 83.6%
- viability, T/C [6]: 64.5%
- viability, T/C [7]: 104%
- viability, T/C [8]: 98.5%
- viability, T/C [9]: 90.1%
- viability, T/C [10]: 102%
- viability, T/C [11]: 75.1%
- viability, T/C [12]: 59.4%
- viability, T/C [13]: 115%
- viability, T/C [14]: 96.6%
- viability, T/C [15]: 98.8%
- viability, T/C [16]: 87.1%
- viability, T/C [17]: 92%
- viability, T/C [18]: 60.1%
- viability, T/C [19]: 101%
- viability, T/C [20]: 99.3%
- viability, T/C [21]: 93.5%
- viability, T/C [22]: 96%
- viability, T/C [23]: 75.3%
- viability, T/C [24]: 54.5%
- viability, T/C [25]: 99.4%
- viability, T/C [26]: 99.6%
- viability, T/C [27]: 99.6%
- viability, T/C [28]: 87.2%
- viability, T/C [29]: 77.4%
- viability, T/C [30]: 55.4%
- viability, T/C [31]: 90.8%
- viability, T/C [32]: 96.3%
- viability, T/C [33]: 98.4%
- viability, T/C [34]: 91.5%
- viability, T/C [35]: 64.9%
- viability, T/C [36]: 68.8%
